Results taken from ChEMBL document CHEMBL4130575, “Sucupiranins A-L, Furanocassane Diterpenoids from the Seeds of Bowdichia virgilioides” (J Nat Prod, 2017).

Columns and labels:
Plasmodium falciparum = experiment: Antimalarial activity against Plasmodium falciparum K1 infected in human erythrocytes after 72 hrs by lactate dehydrogenase assay; type: functional, organism-based; conditions: K1, 72 h
RAW264.7 = experiment: Antiinflammatory activity in mouse RAW264.7 cells assessed as inhibition of LPS-induced nitric oxide production preincubated for 3 hrs followed by LPS challenge measured after 20 hrs by Griess assay; type: functional, cell-based
[1] = Cytotoxicity against human MRC5 cells assessed as decrease in cell viability after 7 days by MTT assay; type: cell-based
[2] = Selectivity index, ratio of CC50 for human MRC5 cells to IC50 for Plasmodium falciparum K1; type: toxicity; conditions: read-out: Ratio CC50/IC50
HeLa = experiment: Cytotoxicity against human HeLa cells after 48 hrs by CCK8 assay; type: functional, cell-based
HL-60 = experiment: Cytotoxicity against human HL60 cells after 48 hrs by CCK8 assay; type: functional, cell-based; conditions: HL-60, 48 h

## CC(=O)OC[C@@]1(C)CCC[C@]2(C)[C@H]3Cc4occc4[C@@](C)(O)[C@@H]3[C@@H](O)[C@H](OC(C)=O)[C@@H]12
Plasmodium falciparum
  IC50: > 28.8 µM

## CC(=O)O[C@H]1[C@H](O)[C@@H]2[C@H](Cc3occc3[C@@]2(C)O)[C@@]2(C)CCCC(C)(C)[C@H]12
RAW264.7
  IC50: 30.6 µM
Plasmodium falciparum
  IC50: 32.2 µM
[1]
  CC50 at 168 h: 139 µM
[2]
  selectivity ratio: 4.3

## COC(=O)[C@@H]1c2ccoc2C[C@H]2[C@H]1[C@@H](OC(C)=O)[C@H](O)[C@H]1[C@](C)(COC(C)=O)CCC[C@]21C
Plasmodium falciparum
  IC50: > 27 µM

## COC(=O)[C@@H]1c2ccoc2C[C@H]2[C@H]1[C@@H](OC(C)=O)[C@@H]1OC(=O)[C@]3(C)CCC[C@@]2(C)[C@@H]13
Plasmodium falciparum
  IC50: > 30 µM

## COC(=O)[C@@H]1c2ccoc2C[C@H]2[C@H]1[C@@H](O)[C@H](O)[C@H]1C(C)(C)CCC[C@]21C
Plasmodium falciparum
  IC50: 22.9 µM
[1]
  CC50 at 168 h: > 276 µM
[2]
  selectivity ratio: > 12

## COC(=O)[C@@H]1c2ccoc2C[C@H]2[C@H]1[C@@H](OC(C)=O)[C@H](O)[C@H]1C(C)(C)CCC[C@]21C
Plasmodium falciparum
  IC50: > 30.9 µM

## CC(=O)OC[C@@H]1c2ccoc2C[C@H]2[C@H]1C[C@H](OC(C)=O)[C@H]1C(C)(C)CCC[C@]21C
HeLa
  IC50: 32.2 µM
HL-60
  IC50: 32.6 µM
Plasmodium falciparum
  IC50: 23.5 µM
[1]
  CC50 at 168 h: 44.1 µM
[2]
  selectivity ratio: 1.9

## COC(=O)[C@@H]1c2ccoc2C[C@H]2[C@H]1[C@@H](O)[C@H](O)[C@H]1[C@](C)(CO)CCC[C@]21C
HL-60
  IC50: 9.8 µM

## COC(=O)[C@@H]1c2ccoc2C[C@H]2[C@H]1[C@@H](OC(C)=O)[C@H](O)[C@@H]1[C@]2(C)CCC[C@@]1(C)C(=O)OC
Plasmodium falciparum
  IC50: > 27.9 µM

## COC(=O)[C@@H]1c2ccoc2C[C@H]2[C@H]1[C@@H](O)[C@H](OC(C)=O)[C@H]1C(C)(C)CCC[C@]21C
Plasmodium falciparum
  IC50: > 30.9 µM

## C[C@@H]1CC[C@H]2[C@@H](C)C(=O)O[C@@H]3O[C@@]4(C)CC[C@@H]1[C@]32OO4 [ARTEMISININ]
Plasmodium falciparum
  IC50: 0.025 µM
